Source: patent US20250163057A1, “DCN-1 MODULATING COMPOUNDS AND METHODS OF USE THEREOF” (Cellarity, Inc., priority 2023, published 2025)
Like-named read-outs stand apart in the source and are kept apart here.

Key:
[1] = test system: fetal hemoglobin gene HBG1; assay: HBG1 Nanostring Assay in CD34+ HSPC erythroid differentiation culture; assay type: cell-based, human; settings: for EC50: Homo sapiens, 240 h, HBG1 induction, Day10 of erythroid differentiation; for Nanostring Ymax obs (%): relative to a control compound (C1)
Method in brief: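 HBG1 counts came from direct nCounter hybridization (67° C, 22 h) of day-10 lysates, normalized to ERCC positive controls and a housekeeping gene, giving EC50 and Ymax versus a reference compound. Compounds in 0.1% DMSO were present from day −2 while cells underwent EPO/SCF/IL-3 erythroid differentiation, with IL-3 dropped at day 7, at 37° C.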

[2] = test system: Cullin-3 (CUL3) neddylation; assay: AlphaLISA assay for Cullin-3 (CUL3) neddylation in TF 1 cells; assay type: cell-based; settings: Homo sapiens, TF-1, 3 h, 3 hours treatment
Method in brief: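 Neddylated CUL3 was quantified by AlphaLISA in lysates of TF 1 cells exposed for 3 h to test compound in IMDM without supplements. Percent inhibition set between vehicle and 1 μM DI-1548 positive control; IC50 derived by Hill-equation fitting of dose-response curves.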

[3] = biological target: DCN1 (DCUND1) protein PONY domain (Homo sapiens (Human), UniProt Q96GG9); assay: TR-FRET assay, DCN1 binding with FAM-labeled probe
Method in brief: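 First, the E. coli-derived PONY domain was biotinylated and paired with streptavidin Tb cryptate. Compounds in 0.1% DMSO were then added to DCN1 and FAM-probe (5 nM/20 nM, or 0.31 nM/900 nM total with 800 nM unlabelled) in TritonX, 200 mM NaCl buffer. Finally, TR-FRET ratios were recorded at 1, 5 and 24 hrs.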

[4] = biological target: DCN1 protein (Homo sapiens (Human), UniProt Q96GG9); assay: Intact Protein MS Analysis with the RapidFire-TOF System (covalent adduct formation); assay type: binding; settings: MS Emax; 400 nM DCN1, 3 hours at room temperature
Method in brief: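 Tag-cleaved human DCN1 (400 nM) expressed in E. coli, in 25 mM Tris-HCl, 200 mM NaCl, 1 mM DTT, was incubated with 11 compound concentrations for 3 h at room temperature and quenched with 0.2% formic acid. Intact-protein Q-TOF MS with deconvolution detected the compound adduct mass.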

[5] = 24 hr after treatment with compound, read-out: TR FRET IC50 24 hr
[6] = TR FRET IC50 1 hr (nM), 1 hr after treatment with compound
[7] = read-out: TR FRET IC50 1 hr, 1 hr after treatment with compound

DCN1 protein, sequence (Q96GG9 whole entry): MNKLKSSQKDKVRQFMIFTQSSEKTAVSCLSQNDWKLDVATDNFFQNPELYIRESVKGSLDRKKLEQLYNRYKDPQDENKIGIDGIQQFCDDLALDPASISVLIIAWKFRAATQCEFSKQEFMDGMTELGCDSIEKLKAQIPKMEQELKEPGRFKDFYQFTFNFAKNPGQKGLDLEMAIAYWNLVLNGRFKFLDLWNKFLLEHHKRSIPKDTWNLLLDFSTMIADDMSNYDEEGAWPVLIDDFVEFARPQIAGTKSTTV
DCN1 (DCUND1) protein PONY domain, sequence (Q96GG9 60-248): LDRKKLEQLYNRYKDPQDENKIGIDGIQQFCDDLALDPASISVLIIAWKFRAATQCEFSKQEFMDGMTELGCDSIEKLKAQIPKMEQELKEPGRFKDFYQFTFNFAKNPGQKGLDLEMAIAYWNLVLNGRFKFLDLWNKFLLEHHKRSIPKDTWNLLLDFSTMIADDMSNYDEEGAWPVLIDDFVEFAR

## C=C(C(=O)OCC)c1nn(-c2ccccc2)c2c1[C@H](c1ccc(F)cc1)[C@H](NC(=O)c1cccc(C(F)(F)F)c1)C(=O)N2CC (racemic) [Compound I-35, rac-ethyl 2-((4R,5R)-7-ethyl-4-(4-fluorophenyl)-6-oxo-1-phenyl-5-(3-(trifluoromethyl)benzamido)-4,5,6,7-tetrahydro-1H-pyrazolo[3,4-b]pyridine-3-yl)acrylate]
[1]
  EC50: 100 to 1000 nM
  Nanostring Ymax obs (%): + (Nanostring Ymax greater than or equal to 0.0 and less than or equal to 50.0)
[2]
  IC50: 100 to 1000 nM
[3]; [5]
  IC50: ≤ 200 nM
[3]; [6]
  IC50: > 3000 nM
[4]
  % Adduct Formation: + (MS Emax % adduct formation greater than or equal to 0.0 and less than or equal to 30.0)

## CCN1C(=O)[C@@H](NC(=O)c2cccc(C(F)(F)F)c2)[C@@H](C)c2c(C(=O)N3[C@H](C#N)C[C@H]4C[C@H]43)nn(C3CCOCC3)c21 (mixture of isomers) [Compound I-386]
[1]
  EC50: ≤ 100 nM
  Nanostring Ymax obs (%): +++ (Nanostring Ymax greater than 100.0)
[2]
  IC50: ≤ 100 nM
[3]; [5]
  IC50: ≤ 200 nM
[3]; [7]
  IC50: ≤ 200 nM
[4]
  % Adduct Formation: +++ (MS Emax % adduct formation greater than 80.0 and less than or equal to 100.0)

## C=C(C(=O)NCc1nn(-c2ccccc2)c2c1[C@@H](c1ccc(F)cc1)[C@H](NC(=O)c1cccc(C(F)(F)F)c1)C(=O)N2CC)C(C)N1CCOCC1 (mixture of isomers) [Compound I-88]
[1]
  EC50: > 1000 nM
  Nanostring Ymax obs (%): + (Nanostring Ymax greater than or equal to 0.0 and less than or equal to 50.0)
[2]
  IC50: ≤ 100 nM
[3]; [5]
  IC50: ≤ 200 nM
[3]; [7]
  IC50: ≤ 200 nM
[4]
  % Adduct Formation: + (MS Emax % adduct formation greater than or equal to 0.0 and less than or equal to 30.0)

## C=C(CC(=O)NCc1nn(-c2ccccc2)c2c1[C@H](c1ccc(F)cc1)[C@H](NC(=O)c1cccc(C(F)(F)F)c1)C(=O)N2CC)C(=O)OC (racemic) [Compound I-4]
[1]
  EC50: 100 to 1000 nM
  Nanostring Ymax obs (%): ++ (Nanostring Ymax greater than 50.0 and less than or equal to 100.0)
[2]
  IC50: ≤ 100 nM
[3]; [5]
  IC50: ≤ 200 nM
[3]; [6]
  IC50: ≤ 200 nM
[4]
  % Adduct Formation: +++ (MS Emax % adduct formation greater than 80.0 and less than or equal to 100.0)

## CCN1C(=O)[C@@H](NC(=O)c2cccc(C(F)(F)F)c2)[C@@H](c2ccc(F)cc2)c2c(CNC(=O)C3(C#N)CC3)nn(-c3ccccc3)c21 (racemic) [Compound I-37, rac-N-((4R,5R)-3-((1-cyanocyclopropane-1-carboxamido)methyl)-7-ethyl-4-(4-fluorophenyl)-6-oxo-1-phenyl-4,5,6,7-tetrahydro-1H-pyrazolo[3,4-b]pyridine-5-yl)-3-(trifluoromethyl)benzamide]
[1]
  EC50: > 1000 nM
  Nanostring Ymax obs (%): + (Nanostring Ymax greater than or equal to 0.0 and less than or equal to 50.0)
[2]
  IC50: 100 to 1000 nM
[3]; [5]
  IC50: 1000 to 3000 nM
[3]; [6]
  IC50: 1000 to 3000 nM
[4]
  % Adduct Formation: + (MS Emax % adduct formation greater than or equal to 0.0 and less than or equal to 30.0)

## C=C(CC(=O)NCc1nn(-c2ccccc2)c2c1[C@@H](c1ccc(F)cc1)[C@H](NC(=O)c1cccc(C(F)(F)F)c1)C(=O)N2CC)C(=O)OC [Compound I-132]
[1]
  EC50: > 1000 nM
  Nanostring Ymax obs (%): + (Nanostring Ymax greater than or equal to 0.0 and less than or equal to 50.0)
[2]
  IC50: 100 to 1000 nM
[3]; [5]
  IC50: ≤ 200 nM
[3]; [6]
  IC50: 200 to 1000 nM
[4]
  % Adduct Formation: ++ (MS Emax % adduct formation greater than 30.0 and less than or equal to 80.0)

## CCN1C(=O)[C@@H](NC(=O)c2cccc(C(F)(F)F)c2)[C@@H](c2ccc(F)cc2)c2c(C(=O)N3C[C@H](OC)C[C@H]3C#N)nn(C3CCOCC3)c21 [Compound I-358]
[1]
  EC50: ≤ 100 nM
  Nanostring Ymax obs (%): +++ (Nanostring Ymax greater than 100.0)
[2]
  IC50: ≤ 100 nM
[3]; [5]
  IC50: ≤ 200 nM
[3]; [7]
  IC50: ≤ 200 nM
[4]
  % Adduct Formation: +++ (MS Emax % adduct formation greater than 80.0 and less than or equal to 100.0)

## CCN1C(=O)[C@@H](NC(=O)c2cccc(C(F)(F)F)c2)[C@@H](c2ccc(F)cc2)c2c(C(=O)N3CC(F)(F)C[C@H]3C#N)nn(C3CCOCC3)c21 [Compound I-361]
[1]
  EC50: ≤ 100 nM
  Nanostring Ymax obs (%): +++ (Nanostring Ymax greater than 100.0)
[2]
  IC50: ≤ 100 nM
[3]; [5]
  IC50: ≤ 200 nM
[3]; [7]
  IC50: ≤ 200 nM
[4]
  % Adduct Formation: +++ (MS Emax % adduct formation greater than 80.0 and less than or equal to 100.0)

## CCN1C(=O)[C@@H](NC(=O)c2cccc(C(F)(F)F)c2)[C@@H](c2ccc(F)cc2)c2c(C(=O)N3CC[C@H](OC)[C@H]3C#N)nn(C3CCOCC3)c21 [Compound I-359]
[1]
  EC50: ≤ 100 nM
  Nanostring Ymax obs (%): +++ (Nanostring Ymax greater than 100.0)
[2]
  IC50: ≤ 100 nM
[3]; [5]
  IC50: ≤ 200 nM
[3]; [7]
  IC50: ≤ 200 nM
[4]
  % Adduct Formation: +++ (MS Emax % adduct formation greater than 80.0 and less than or equal to 100.0)

## C=C(CN1CCOCC1)C(=O)Nc1nn(-c2ccccc2)c2c1[C@H](c1ccc(F)cc1)[C@H](NC(=O)c1cccc(C(F)(F)F)c1)C(=O)N2CC (racemic) [Compound I-75]
[1]
  Nanostring Ymax obs (%): +++ (Nanostring Ymax greater than 100.0)
[2]
  IC50: ≤ 100 nM
[3]; [5]
  IC50: ≤ 200 nM
[3]; [7]
  IC50: ≤ 200 nM
[4]
  % Adduct Formation: +++ (MS Emax % adduct formation greater than 80.0 and less than or equal to 100.0)

## CCN1C(=O)[C@H](NC(=O)c2cccc(C(F)(F)F)c2)[C@H](c2ccc(F)cc2)c2c([C@@H](C)NC#N)nn(-c3ccccc3)c21 [Compound I-13, N-((4R,5R)-3-((R)-1-cyanamidoethyl)-7-ethyl-4-(4-fluorophenyl)-6-oxo-1-phenyl-4,5,6,7-tetrahydro-1H-pyrazolo[3,4-b]pyridin-5-yl)-3-(trifluoromethyl)benzamide]
[1]
  EC50: > 1000 nM
  Nanostring Ymax obs (%): + (Nanostring Ymax greater than or equal to 0.0 and less than or equal to 50.0)
[2]
  IC50: 100 to 1000 nM
[3]; [5]
  IC50: 1000 to 3000 nM
[3]; [6]
  IC50: 1000 to 3000 nM
[4]
  % Adduct Formation: ++ (MS Emax % adduct formation greater than 30.0 and less than or equal to 80.0)

## C=C(CO)C(=O)NCc1nn(-c2ccccc2)c2c1[C@@H](c1ccc(F)cc1)[C@H](NC(=O)c1cccc(C(F)(F)F)c1)C(=O)N2CC [Compound I-106]
[1]
  EC50: > 1000 nM
  Nanostring Ymax obs (%): ++ (Nanostring Ymax greater than 50.0 and less than or equal to 100.0)
[2]
  IC50: 100 to 1000 nM
[3]; [5]
  IC50: 200 to 1000 nM
[3]; [6]
  IC50: 200 to 1000 nM
[4]
  % Adduct Formation: + (MS Emax % adduct formation greater than or equal to 0.0 and less than or equal to 30.0)

## CCN1C(=O)[C@@H](NC(=O)c2cccc(C(F)(F)F)c2)[C@@H](C2CC2)c2c(C(=O)N(C)CC#N)nn(C3CCOCC3)c21 [Compound I-374]
[1]
  EC50: ≤ 100 nM
  Nanostring Ymax obs (%): +++ (Nanostring Ymax greater than 100.0)
[2]
  IC50: ≤ 100 nM
[3]; [5]
  IC50: ≤ 200 nM
[3]; [6]
  IC50: 200 to 1000 nM
[4]
  % Adduct Formation: +++ (MS Emax % adduct formation greater than 80.0 and less than or equal to 100.0)

## CCN1C(=O)[C@@H](NC(=O)c2cccc(C(F)(F)F)c2)[C@@H](c2ccc(F)cc2)c2c(C(=O)N3CC(F)(F)C[C@H]3C#N)nn(-c3ccccc3)c21 (racemic) [Compound I-251, N-((4RS,5RS)-3-(I-2-cyano-4,4-difluoropyrrolidine-1-carbonyl)-7-ethyl-4-(4-fluorophenyl)-6-oxo-1-phenyl-4,5,6,7-tetrahydro-1H-pyrazolo[3,4-b]pyridine-5-yl)-3-(trifluoromethyl)benzamide]
[1]
  EC50: 100 to 1000 nM
  Nanostring Ymax obs (%): ++ (Nanostring Ymax greater than 50.0 and less than or equal to 100.0)
[2]
  IC50: ≤ 100 nM
[3]; [5]
  IC50: ≤ 200 nM
[3]; [6]
  IC50: ≤ 200 nM
[4]
  % Adduct Formation: +++ (MS Emax % adduct formation greater than 80.0 and less than or equal to 100.0)

## C=CC(=O)Nc1nn(-c2ccccc2)c2c1[C@H](c1ccc(F)cc1)[C@H](NC(=O)c1cccc(C(F)(F)F)c1)C(=O)N2CC (racemic) [Compound I-122]
[1]
  EC50: > 1000 nM
  Nanostring Ymax obs (%): ++ (Nanostring Ymax greater than 50.0 and less than or equal to 100.0)
[2]
  IC50: 100 to 1000 nM
[3]; [5]
  IC50: ≤ 200 nM
[3]; [7]
  IC50: ≤ 200 nM
[4]
  % Adduct Formation: ++ (MS Emax % adduct formation greater than 30.0 and less than or equal to 80.0)

## CCN1C(=O)[C@@H](NC(=O)c2cccc(C(F)(F)F)c2)[C@@H](C2CC2)c2c(C(=O)N3CC(F)(F)C[C@H]3C#N)nn(C3CCOCC3)c21 [Compound I-378]
[1]
  EC50: ≤ 100 nM
  Nanostring Ymax obs (%): ++ (Nanostring Ymax greater than 50.0 and less than or equal to 100.0)
[2]
  IC50: ≤ 100 nM
[3]; [5]
  IC50: ≤ 200 nM
[3]; [7]
  IC50: ≤ 200 nM
[4]
  % Adduct Formation: +++ (MS Emax % adduct formation greater than 80.0 and less than or equal to 100.0)
